Legend:
[1] = paraben with M=H; at 25° C.; cited from earlier work
[2] = 13C NMR investigation of the reaction between ascorbic acid and methylparaben; format: physicochemical
Method: Small portions of powdered sodium hydroxide were added with agitation to adjust the pH. At 3 defined pH's (pH 7.5, 8.8 and 9.6), a representative aliquot (0.5 cm^3) was transferred to an NMR tube. The 3 sampled reaction mixtures were monitored daily for one week by ^13C NMR When not being monitored, the mixtures were stored at room temperature protected from light. At the end of the monitoring period a small quantity of methanol was added to the solution to confirm that, if hydrolysis had occurred, the ^13C NMR signal for any methanol produced by transesterification would have been well separated from that for the initial methyl ester resonance.
The ^13C NMR spectra were obtained using a JEOL EX270 NMR spectrometer with a broad-band tuneable probe operating at a frequency of 67.94 MHz. The data for each spectrum was acquired over a period of about 30 min.
An aliquot (0.5 cm^3) of the colourless solution was removed and monitored by ^13C NMR spectroscopy. As part of the monitoring process the sample was placed in a Bruker AM250 NMR spectrometer after 29 hours and its ^13C NMR spectrum accumulated over a period of 16 hours. […] A small quantity of methanol was then added to the sample as a reference peak.

Row | SMILES | solubility in water [1] | additional components from interaction of ascorbic acid and methylparaben (13C NMR) ([2]; Experiment B, pH 9.5, spectrum started after 29 hours, accumulated over 16 hours) | formation of methanol from hydrolysis of methylparaben (13C NMR) ([2]; Experiment B, pH 9.5, with ascorbic acid, after 29 hours, accumulated 16 hours) | reaction with ascorbic acid or hydrolysis (13C NMR) ([2]; even at pH approximately 9.6 after 7 days)
1 | CCOC(=O)c1ccc(O)cc1 [ethylparaben, Ethylparaben] | 0.070% w/w at 25° C., | – | – | –
2 | COC(=O)c1ccc(O)cc1 [methylparaben, Methylparaben] | – | no significant quantities of any additional components had been produced | no evidence for the formation of any methanol | no evidence was found from ^13C NMR studies for any significant reaction between ascorbic acid and methylparaben, or any significant hydrolysis

From patent US7052672B2, “Stabilized radiopharmaceutical compositions” (GE Healthcare Limited, priority 2000, dated 2006)
